According to patent US20150309031A2, “COMPOSITIONS AND METHODS FOR PROGNOSIS AND TREATMENT OF CANCER” (NOVAZOI THERANOSTICS, priority 2013, published 2015):

Assays:
MDA-MB-231 (231) cells = experiment: subG1 (hypodiploid) fraction by flow cytometry, 231 cells; assay type: cell-based
Description: (§1) Trypsinized cells were resuspended in PBS at 10^6 cells/ml. Cells were then fixed by addition of ice-cold 70% ethanol. Ethanol-fixed cells were kept overnight at 4° C. before staining. Cells were pelleted and washed twice with PBS. Cell pellets were incubated for an hour at room temperature with mouse anti-MPM-2 antibody (Millipore, Mass., USA), followed by 1 h incubation with Alexa-488 anti-mouse secondary antibody (Life Technologies, NY, USA). Finally cells were washed, pelleted and resuspended in propidium iodide-containing isotonic buffer (0.1 mg/mL) and 0.5% Triton X-100. Cell cycle distribution was determined by flow cytometry using an LSR Fortessa Flow cytometer (BD Biosciences, CA, USA) and analyzed using Flowjo software (Tree Star, OR, USA). […] The duration, highest degree, and rapidity of onset of MA varied between drugs, drug concentrations, and cell lines (FIGS. 2A, 2B). In general, the maximum MA achieved was less pronounced in Nos- and PJ-treated cells (FIGS. 2A, 2B). Drug-induced onset of MA was corroborated by substantial increases in cyclin B1 levels in all cell lines (FIG. 2C). […] Instances where the subG1 fraction was elevated without cleaved caspase-3 may either represent caspase-independent cell death or the presence of hypodiploid cells whose fate is unclear.

[1] = test system: human dermal fibroblasts (HDFs); experiment: Centrosome amplification (CA) by microscopy, HDFs; assay type: cell-based; conditions: any concentration or time point assessed
Description: (§2) Consequently, CA was assessed in cultures treated with different concentrations of declustering drugs for 6, 12, 18, or 24 h and untreated controls via microscopy. Centrosomes were identified by γ-tubulin and centrin-2 colocalization at discrete foci. […] The peak percent CA detected over 24 h is shown in FIG. 6 (only statistically significant (P<0.05) increases over control values are represented in the Figures). Representative confocal micrographs of CA in interphase and mitotic cells, both control and drug treated, are depicted in FIG. 7. No significant correlations between the degree of CA (FIG. 5A) and the expression levels of PLK4, Cyclin E, and Aurora A were found (FIG. 4).
(§3) To determine whether the CA-inducing activity of declustering drugs is restricted to cancer cells, two non-malignant cell lines, mammary fibrocystic (MCF10A) cells and adult human dermal fibroblasts were treated with these drugs. Neither one of RBN, GF or PJ induced CA or cell death (Table 8) in these cell lines. […] In comparison, 10 and 25 μM RBN increased peak CA over controls in interphase cells (p<0.001 and p=0.001, respectively), with the lower concentration dramatically augmenting peak CA to 56% of cells versus 15% for the higher dose (FIG. 9B). Only 10 but not 25 μM RBN increased the extent of CA in mitotic cells, and this upregulation was only slight (10%, p=0.041).

[2] = test system: mammary fibrocystic (MCF10A) cells; experiment: subG1 (hypodiploid) fraction by flow cytometry, MCF10A cells; assay type: cell-based; conditions: for change of peak subG1 percent compared to controls (in words): MCF10A cells; for Peak subG1 percent over 48 h: MCF10A
PC3 cells = experiment: subG1 (hypodiploid) fraction by flow cytometry, PC3 cells; assay type: cell-based
Description: as §1

231 cells = experiment: Mitotic arrest (MA) by flow cytometry, 231 cells; assay type: cell-based; conditions: 10 μM
Description: FIGS. 2A-2C depict mitotic arrest (MA) phenotypes observed upon treatment with putative centrosome declustering drugs. […] Declustering drugs included Nos, BN, RBN, PJ, and GF, all at 10 and 25 μM except GF, which was used at 25 and 50 μM, and cell lines included 231, PC3, and HeLa. […] In general, MA increased from 0 h to a peak near 24 h, followed by a decline in MA that coincided with increases in subG1 fractions. Results are representative of three independent experiments. […] Drugs are ranked in order of increasing peak subG1 from bottom to top along the y axis. […] Increased levels of both cyclins compared with controls (0 h) were detected across cell lines with variable expression patterns depending on the drug and cell line. To evaluate apoptosis, cleaved caspase-3 (C. Caspase-3) was immunoblotted and eventual increases over controls were universally detected, typically by 24 h.
To evaluate the impact of putative declustering drugs on cell cycle progression and hypodiploidy (<2N DNA content, which may indicate apoptotic cells), MDA-MB-231 (231), PC3, and HeLa cells were treated with different concentrations of declustering drugs, stained with propidium iodide, labeled with anti-MPM2 antibody, and then assessed by flow cytometry at multiple time points over 48 h. […]

MCF10A cells = experiment: Centrosome amplification (CA) by microscopy, MCF10A cells; assay type: cell-based; conditions: for change of CA over control levels (in words): interphase and mitotic cells, over 24 h
Description: as §2, §3

HeLa cells [3] = experiment: subG1 (hypodiploid) fraction by flow cytometry, HeLa cells; assay type: cell-based
Description: as §1

[4] = test system: adult human dermal fibroblasts (HDF); experiment: subG1 (hypodiploid) fraction by flow cytometry, HDFs; assay type: cell-based
[5] = test system: MDA-MB-231 (231), PC3, and HeLa cells; experiment: Mitotic arrest (MA) by flow cytometry (MPM2/PI), across cell lines; assay type: cell-based; conditions: coarse-grained categories
Description: Trypsinized cells were resuspended in PBS at 10^6 cells/ml. Cells were then fixed by addition of ice-cold 70% ethanol. Ethanol-fixed cells were kept overnight at 4° C. before staining. Cells were pelleted and washed twice with PBS. Cell pellets were incubated for an hour at room temperature with mouse anti-MPM-2 antibody (Millipore, Mass., USA), followed by 1 h incubation with Alexa-488 anti-mouse secondary antibody (Life Technologies, NY, USA). Finally cells were washed, pelleted and resuspended in propidium iodide-containing isotonic buffer (0.1 mg/mL) and 0.5% Triton X-100. Cell cycle distribution was determined by flow cytometry using an LSR Fortessa Flow cytometer (BD Biosciences, CA, USA) and analyzed using Flowjo software (Tree Star, OR, USA).
To evaluate the impact of putative declustering drugs on cell cycle progression and hypodiploidy (<2N DNA content, which may indicate apoptotic cells), MDA-MB-231 (231), PC3, and HeLa cells were treated with different concentrations of declustering drugs, stained with propidium iodide, labeled with anti-MPM2 antibody, and then assessed by flow cytometry at multiple time points over 48 h. […] The duration, highest degree, and rapidity of onset of MA varied between drugs, drug concentrations, and cell lines (FIGS. 2A, 2B). In general, the maximum MA achieved was less pronounced in Nos- and PJ-treated cells (FIGS. 2A, 2B). […]

HDFs and MCF10A cells = experiment: Spindle multipolarity (MP) in non-malignant cell lines; assay type: cell-based
HeLa cells [6] = experiment: Centrosome amplification (CA) by microscopy, HeLa cells; assay type: cell-based; conditions: interphase, 25 μM
Description: Consequently, CA was assessed in cultures treated with different concentrations of declustering drugs for 6, 12, 18, or 24 h and untreated controls via microscopy. […] The peak percent CA detected over 24 h is shown in FIG. 6 (only statistically significant (P<0.05) increases over control values are represented in the Figures). Representative confocal micrographs of CA in interphase and mitotic cells, both control and drug treated, are depicted in FIG. 7. […] To better understand the “potency” of drug-induced CA with time, the average fold change in CA over controls over 24 h was assessed (FIG. 5A), whereby the extent of CA across time points (i.e., 6, 12, 18, and 24 h) was averaged and then divided by the extent of CA in control (i.e., 0 h). […] For Nos and BN, there was no major difference in CA levels in interphase versus mitotic cells.

[7] = target: T1, KIFC1/microtubule (MT) binary complex (Homo sapiens, UniProt Q9BW19); conditions: read-out: Ki (ATP-competitive, MT-noncompetitive inhibition of MT-stimulated KIFC1 enzymatic activity); cited from earlier work
T1 sequence (Q9BW19 1-673): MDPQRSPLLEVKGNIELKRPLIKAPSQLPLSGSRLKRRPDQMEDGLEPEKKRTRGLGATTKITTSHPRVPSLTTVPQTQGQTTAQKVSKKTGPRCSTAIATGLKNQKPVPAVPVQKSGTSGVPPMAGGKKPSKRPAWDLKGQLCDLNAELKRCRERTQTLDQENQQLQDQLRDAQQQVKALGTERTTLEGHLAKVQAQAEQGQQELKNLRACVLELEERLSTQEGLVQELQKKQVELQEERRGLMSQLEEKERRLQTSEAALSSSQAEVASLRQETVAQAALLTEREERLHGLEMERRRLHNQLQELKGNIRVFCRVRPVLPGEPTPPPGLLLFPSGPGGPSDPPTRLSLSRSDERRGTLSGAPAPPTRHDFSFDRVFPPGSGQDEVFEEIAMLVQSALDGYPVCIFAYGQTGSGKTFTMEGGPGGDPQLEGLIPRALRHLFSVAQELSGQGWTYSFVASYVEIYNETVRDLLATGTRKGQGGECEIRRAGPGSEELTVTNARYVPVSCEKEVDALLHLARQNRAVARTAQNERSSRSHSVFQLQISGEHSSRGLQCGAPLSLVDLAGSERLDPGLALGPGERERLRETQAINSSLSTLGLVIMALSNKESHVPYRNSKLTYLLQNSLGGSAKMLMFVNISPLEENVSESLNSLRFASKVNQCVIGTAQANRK

[8] = test system: BT-549 breast cancer cells; conditions: BT-549 cells with amplified centrosomes; cited from earlier work

Compound	Peak subG1 percent over 48 h (MDA-MB-231 (231) cells; 10 μM) [%]	Peak subG1 percent over 48 h (MDA-MB-231 (231) cells; 25 μM) [%]	maximum subG1 fraction relative to control (MDA-MB-231 (231) cells; 25 μM) [× control]	change of CA over controls (in words) [1]	change of peak subG1 percent compared to controls (in words) [2]	Peak subG1 percent over 48 h ([2]; 10 μM) [%]	Peak subG1 percent over 48 h ([2]; 25 μM) [%]	Peak subG1 percent over 48 h (PC3 cells; 10 μM) [%]	Peak subG1 percent over 48 h (PC3 cells; 25 μM) [%]	maximum subG1 fraction relative to control (PC3 cells; 25 μM) [× control]	change of CA over control levels (in words) (MCF10A cells)	Peak subG1 percent over 48 h (HeLa cells [3]; 10 μM) [%]	Peak subG1 percent over 48 h (HeLa cells [3]; 25 μM) [%]	Peak subG1 percent over 48 h ([4]; 10 μM) [%]	Peak subG1 percent over 48 h ([4]; 25 μM) [%]	also measured
COc1ccc2c(c1OC)C(=O)O[C@@H]2[C@H]1c2c(c(Br)c3c(c2OC)OCO3)CCN1C [BN, 9-bromonoscapine]	32.5	65.2	9.3	did not significantly increase the extent of CA over controls	did not cause a significant increase in peak subG1 percent compared to controls	3.5	3.0	46.0	42.8	9.2	neither concentrations of Nos or BN significantly increased CA over control levels	42.0	54.9	16.5	20.4	mitotic arrest (in words) (231 cells): did not cause any MA; maximum subG1 fraction relative to control (HeLa cells [3]; 25 μM): 4.4 × control
CN(C)CC(=O)Nc1ccc2[nH]c(=O)c3ccccc3c2c1 [PJ, PJ-34]	37.0	55.0	10.4	no significant impact on CA in HDFs	did not cause a significant increase in peak subG1 percent compared to controls	6.9	9.1	62.4	48.4	7.9	increased the peak extent of CA in interphase and mitotic cells	48.5	64.4	13.6	28.2	mean time to peak MA (MA:TRH) [5]: ~12 h; induction of MP over control levels (HDFs and MCF10A cells): significantly induce MP over control levels; peak extent of CA in interphase cells (MCF10A cells; interphase, 10 μM): 8%; maximum subG1 fraction relative to control (HeLa cells [3]; 10 μM): 4.8 × control; fold increase in peak CA extent, interphase cells (HeLa cells [6]): ~20 fold; peak / final extent of CA in interphase cells (HeLa cells [6]): < 20%
CCCc1cc(C(=O)N[C@H](Cc2ccc(-c3cccc(OC(F)(F)F)c3)nc2)C(=O)N[C@@H]2CCNC2)sc1C [AZ82]	–	–	–	–	–	–	–	–	–	–	–	–	–	–	–	Ki [7]: 43 nM; centrosome declustering [8]: causes centrosome declustering
